Assay results: US10662198B2, “Polymorphic form of compound, preparation method and use thereof” (QILU PHARMACEUTICAL CO., LTD., priority 2017, dated 2020)

Assays:
Assay type in all cases: physicochemical
[1] = Stability test at room temperature; details: for Purity after 180 days / Crystalline form after 180 days: sealed medicinal low density polyethylene bags; for Purity after 180 days: HPLC; for Crystalline form after 180 days: XRPD
Excerpt: The crystalline form II prepared in example 2, crystalline form IV prepared in example 4, crystalline form VI prepared in example 8, and crystalline form VII prepared in example 10 were respectively placed in medicinal low density polyethylene bags, sealed, and maintained at room temperature for 180 days, detected by PANalytical X-ray powder diffractometer for its XRPD, and by high performance liquid chromatography for its purity.

[2] = Stability test at high temperature
Description: The crystalline form II prepared in example 2 was subjected to a stability test at 60° C., and the results were shown in Table 7 below.

[3] = Stability test under high humidity
Excerpt: The crystalline form IV prepared in example 4 was subjected to a stability test at 92.5% RH, and the results were shown in Table 8 below.

Structure (SMILES) | purity and crystalline form after 180 days (in words) [1] | Purity after 180 days [1] [%] | Crystalline form after 180 days [1] | HPLC purity (%) Initial ([2]; 60° C. test, initial) [%] | Crystalline form After 10 days ([2]; 60° C., after 10 days) | HPLC purity (%) After 10 days ([2]; 60° C., after 10 days) [%] | change in purity and crystalline form (in words) ([2]; high temperature condition, 10 days) | HPLC purity (%) Initial ([3]; 92.5% RH test, initial) [%] | HPLC purity (%) After 10 days ([3]; 92.5% RH, after 10 days) [%] | change in purity and crystal form (in words) ([3]; high humidity condition, 10 days) | purity, color, and properties on preservation at high humidity (in words) ([3]; relative humidity of up to 92.5% RH)
COC(=O)C1=C2C[C@H](NS(N)(=O)=O)CN2C(c2nccs2)=N[C@H]1c1ccc(F)c(F)c1F [Crystalline form II, methyl (3R,6S)-6-aminosulfonylamino-1-(thiazol-2-yl)-3-(2,3,4-trifluorophenyl)-3,5,6,7-tetrahydropyrrolo[1,2-c]pyrimidin-4-formate] | remained unchanged | 99.5 | unchanged | 96.8 | crystalline form unchanged | 96.6 | no change in purity and crystalline form | – | – | – | –
COC(=O)C1=C2C[C@H](NS(N)(=O)=O)CN2C(c2nccs2)=N[C@H]1c1ccc(F)c(F)c1F [Crystalline form IV, methyl (3R,6S)-6-aminosulfonylamino-1-(thiazol-2-yl)-3-(2,3,4-trifluorophenyl)-3,5,6,7-tetrahydropyrrolo[1,2-c]pyrimidin-4-formate] | remained unchanged | 99.3 | unchanged | – | – | – | – | 99.2 | 99.1 | no change in purity and crystal form | purity, color, and properties unchanged
COC(=O)C1=C2C[C@H](NS(N)(=O)=O)CN2C(c2nccs2)=N[C@H]1c1ccc(F)c(F)c1F [Crystalline form VI, methyl (3R,6S)-6-aminosulfonylamino-1-(thiazol-2-yl)-3-(2,3,4-trifluorophenyl)-3,5,6,7-tetrahydropyrrolo[1,2-c]pyrimidin-4-formate] | remained unchanged | 99.7 | unchanged | – | – | – | – | – | – | – | –
COC(=O)C1=C2C[C@H](NS(N)(=O)=O)CN2C(c2nccs2)=N[C@H]1c1ccc(F)c(F)c1F [Crystalline form VII, methyl (3R,6S)-6-aminosulfonylamino-1-(thiazol-2-yl)-3-(2,3,4-trifluorophenyl)-3,5,6,7-tetrahydropyrrolo[1,2-c]pyrimidin-4-formate] | remained unchanged | 99.5 | unchanged | – | – | – | – | – | – | – | –
